Laboratory results from US8697730B2, “5-lipoxygenase activating protein (FLAP) inhibitor” (Panmira Pharmaceuticals, LLC, priority 2007, dated 2014).
Like-named read-outs stand apart in the source and are kept apart here.

How the values were obtained:
[1] = system: whole blood ionophore-stimulated leukotriene LTB4; experiment: Phase 1 study, whole blood ionophore-stimulated LTB4; assay type: in vivo, human
Method: Pharmacodynamics: Whole blood ionophore-stimulated leukotriene LTB4 and urinary LTE4 production are assayed by ELISA and mass spectrometry, respectively.
(§1) Obtain pre-dose fasting blood samples for hematology determinations. Obtain pre-dose fasting blood samples for serum chemistry determinations. Obtain pre-dose blood samples (5 mL EDTA and 4 mL heparinized) for baseline PK and LTB4. Collect ‘spot’ urine prior to study drug administration for baseline (pre-dose) LTE4. Administer study drug. […] Collect blood samples (2 mL heparinized) for LTB4 at 0.5, 1, 2, 3, 4, 6, 8, and 12 hours. Collect urine for LTE4 for the following separate intervals: 0-3, 3-6, 6-9, and 9-12 hours. For twice daily dosing group (if conducted): administer study drug 12 hours±30 minutes after prior dose, preceded by ≧2 hours fast.
Obtain pre-dose fasting blood samples for hematology determinations. Obtain pre-dose fasting blood samples for serum chemistry determinations. […] Collect blood samples (2 mL heparinized) for LTB4 at 24 hours after the first study drug administration; 4 mL blood will be collected at this time point in the Single Dose Phase. Collect ‘spot’ urine sample for LTE4 at 24 and 36 hours after first study drug administration.
Obtain pre-dose blood samples (5 mL EDTA and 2 mL heparinized) for PK and LTB4. Collect pre-dose urine for LTE4. Administer study drug (last dose of drug). […] Collect blood samples (2 mL heparinized) for LTB4 at 0.5, 1, 2, 3, 4, 6, 8, and 12 hours. Collect urine for LTE4 for the following separate intervals: 0-3, 3-6, 6-9, and 9-12 hours after study drug administration.
Record vital signs 24 hours after Day 11 study drug administration. […] Collect blood sample (4 mL heparinized) for LTB4 at 24 hours after Day 11 study drug administration. Collect ‘spot’ urine sample for LTE4 at 24 hours after Day 11 study drug administration.
Whole blood ionophore-stimulated leukotriene LTB4 and urinary LTE4 production were assayed by ELISA and mass spectrometry, respectively.

CYP2D6 = CYP2D6 (Homo sapiens, UniProt P10635); experiment: biochemical
[2] = Regional dosing study in rat; parameters: species or system Male Sprague-Dawley rats; conditions: in vivo
[3] = Phase 1 study in healthy human volunteers, plasma pharmacokinetics; assay type: in vivo; conditions: for AUC(0-t): read-out: AUC0-24 (hr * mM) AVE ± SD; for Tmax: read-out: Tmax (hr) AVE ± SD; for half-life: read-out: t1/2 (hr) AVE ± SD (converted)
Method: The study is divided into two phases (Single and Multiple Dose Phases).
One cohort in the Multiple Dose Phase receives twice daily dosing.
Placebo solution to match. The finished aqueous solution is prepared in the clinical study site pharmacy within 24 hours of dosing. The study drug is stored at room temperature between 15-30° C. (59-86° F.) and protected from light.
Route of Administration: All doses are administered orally with approximately 100 mL of water rinse. Subjects are fasted for at least 8 hours prior to dosing and for 2 hours after dosing.
as §1, with “fast. […]” for “fast.”

[4] = both sexes, human, single dose 50 mg, oral solution, fasted healthy subjects
[5] = both sexes, human, single dose 150 mg, oral solution, fasted healthy subjects
[6] = both sexes, human, single dose 300 mg, oral solution, fasted healthy subjects
[7] = both sexes, human, single dose 600 mg, oral solution, fasted healthy subjects
[8] = both sexes, human, single dose 1000 mg, oral solution, fasted healthy subjects
[9] = male, human, multiple dose phase, Day 1, 150 mg, oral solution
[10] = male, human, multiple dose phase, Day 1, 450 mg, oral solution
[11] = male, human, multiple dose phase, Day 1, 1000 mg, oral solution

Chain of CYP2D6 (P10635 whole entry): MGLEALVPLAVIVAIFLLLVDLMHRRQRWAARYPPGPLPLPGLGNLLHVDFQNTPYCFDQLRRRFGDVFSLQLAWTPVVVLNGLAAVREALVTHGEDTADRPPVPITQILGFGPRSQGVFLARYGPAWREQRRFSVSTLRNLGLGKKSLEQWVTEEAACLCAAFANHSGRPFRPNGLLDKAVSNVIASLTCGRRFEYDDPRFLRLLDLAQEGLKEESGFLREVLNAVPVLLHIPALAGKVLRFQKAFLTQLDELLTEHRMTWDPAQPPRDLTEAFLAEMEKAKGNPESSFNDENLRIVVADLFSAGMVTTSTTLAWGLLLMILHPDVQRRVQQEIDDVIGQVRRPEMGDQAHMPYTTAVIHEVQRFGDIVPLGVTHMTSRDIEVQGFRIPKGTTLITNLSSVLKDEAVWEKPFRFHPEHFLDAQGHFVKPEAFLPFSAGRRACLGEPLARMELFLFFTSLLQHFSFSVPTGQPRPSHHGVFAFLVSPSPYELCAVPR

Q: With COc1ccc(-c2ccc(Cn3c(CC(C)(C)C(=O)O)c(SC(C)(C)C)c4cc(OCc5ccccn5)ccc43)cc2)cn1 [sodium 3-[5-(pyridin-2-ylmethoxy)-3-(2-methyl-2-propylthio)-1-[4-(2-methoxypyridin-5-yl)benzyl]-indol-2-yl]-2,2-dimethyl-propionate] as the compound, how does the “LTB4 level at t = 24 hrs. (% of baseline)” value (“LTB4 level … (% of baseline)” for short) ([1]; multiple dose, 450 mg daily, Day 1) read?
A: 24 ± 6.7 % of baseline

Q: And the “LTB4 level … (% of baseline)” value ([1]; multiple dose, 450 mg daily, Day 11)?
A: 26 ± 7.4 % of baseline

Q: And the “LTB4 level … (% of baseline)” value ([1]; multiple dose, 1000 mg daily, Day 1)?
A: 2.7 ± 1.1 % of baseline

Q: And the “LTB4 level … (% of baseline)” value ([1]; multiple dose, 1000 mg daily, Day 11)?
A: 1.0 ± 0.6 % of baseline

Q: And the “LTB4 level … (% of baseline)” value ([1]; single dose 50 mg, oral solution)?
A: 75 ± 15 % of baseline

Q: And the “LTB4 level … (% of baseline)” value ([1]; single dose 150 mg, oral solution)?
A: 58 ± 18 % of baseline

Q: And the “LTB4 level … (% of baseline)” value ([1]; single dose 300 mg, oral solution)?
A: 36 ± 6.5 % of baseline

Q: What about the “LTB4 level … (% of baseline)” value ([1]; single dose 600 mg, oral solution) of the same compound?
A: 25 ± 8.7 % of baseline

Q: And the “LTB4 level … (% of baseline)” value ([1]; single dose 1000 mg, oral solution)?
A: 23 ± 12 % of baseline

Q: And the IC50 (CYP2D6)?
A: > 50 µM

Q: And the “site of absorption in words” value [2]?
A: mainly absorbed in the upper gastrointestinal tract

Q: What about the AUC(0-t) [3, 4] of the same compound?
A: 5.4 ± 2.5 µM·h

Q: And the Cmax ([3]; both sexes, human, single dose 50 mg, oral solution, fasted healthy subjects, read-out: Cmax (mM) AVE ± SD)?
A: 0.00065 ± 0.00032 mM

Q: And the Tmax [3, 4]?
A: 3 ± 0.8 h

Q: What about the half-life [3, 4] of the same compound?
A: 7.7 ± 0.3 h

Q: And the AUC(0-t) [3, 5]?
A: 15.9 ± 8.7 µM·h

Q: And the Cmax ([3]; both sexes, human, single dose 150 mg, oral solution, fasted healthy subjects, read-out: Cmax (mM) AVE ± SD)?
A: 0.0018 ± 0.0011 mM

Q: And the Tmax [3, 5]?
A: 2.5 ± 0.5 h

Q: What about the half-life [3, 5] of the same compound?
A: 10 ± 2 h

Q: And the AUC(0-t) [3, 6]?
A: 25.8 ± 7.4 µM·h

Q: What about the Cmax ([3]; both sexes, human, single dose 300 mg, oral solution, fasted healthy subjects, read-out: Cmax (mM) AVE ± SD) of the same compound?
A: 0.0031 ± 0.0014 mM

Q: What about the Tmax [3, 6] of the same compound?
A: 3.2 ± 1 h

Q: What about the half-life [3, 6] of the same compound?
A: 12.3 ± 3.1 h

Q: What about the AUC(0-t) [3, 7] of the same compound?
A: 54 ± 35.3 µM·h

Q: And the Cmax ([3]; both sexes, human, single dose 600 mg, oral solution, fasted healthy subjects, read-out: Cmax (mM) AVE ± SD)?
A: 0.0081 ± 0.0053 mM

Q: What about the Tmax [3, 7] of the same compound?
A: 2 ± 0.6 h

Q: What about the half-life [3, 7] of the same compound?
A: 8.8 ± 1.3 h

Q: And the AUC(0-t) [3, 8]?
A: 85 ± 44 µM·h

Q: What about the Cmax ([3]; both sexes, human, single dose 1000 mg, oral solution, fasted healthy subjects, read-out: Cmax (mM) AVE ± SD) of the same compound?
A: 0.013 ± 0.005 mM

Q: What about the Tmax [3, 8] of the same compound?
A: 3 ± 0.8 h

Q: What about the half-life [3, 8] of the same compound?
A: 7.6 ± 4.6 h

Q: And the Cmax ([3]; both sexes, oral, profile that may be obtained from a single dose administration to a human, dose not stated, read-out: Cmax)?
A: ≤ 0.005 mM

Q: And the AUC(0-t) [3, 9]?
A: 11.3 ± 5 µM·h

Q: And the Cmax ([3]; male, human, multiple dose phase, Day 1, 150 mg, oral solution, read-out: Cmax (mM) AVE ± SD)?
A: 0.0019 ± 0.0011 mM

Q: What about the Tmax [3, 9] of the same compound?
A: 2.5 ± 0.5 h

Q: And the half-life [3, 9]?
A: 9.2 ± 2 h

Q: What about the AUC(0-t) [3, 10] of the same compound?
A: 34.2 ± 7.9 µM·h

Q: And the Cmax ([3]; male, human, multiple dose phase, Day 1, 450 mg, oral solution, read-out: Cmax (mM) AVE ± SD)?
A: 0.0047 ± 0.0022 mM

Q: And the Tmax [3, 10]?
A: 2.7 ± 0.5 h

Q: And the half-life [3, 10]?
A: 13.2 ± 3.9 h

Q: And the AUC(0-t) [3, 11]?
A: 127 ± 50 µM·h

Q: What about the Cmax ([3]; male, human, multiple dose phase, Day 1, 1000 mg, oral solution, read-out: Cmax (mM) AVE ± SD) of the same compound?
A: 0.0144 ± 0.0051 mM

Q: What about the Tmax [3, 11] of the same compound?
A: 2.3 ± 0.5 h

Q: And the half-life [3, 11]?
A: 11.2 ± 5.1 h
